Source: patent US11130780B2, “Inhibitors of growth factor activation enzymes” (Washington University, priority 2015, dated 2021)
pIC50, pKi: −log10 of the molar value.

Assays:
HGFA [1] = target: T1, HGFA (Homo sapiens, UniProt Q04756); experiment: Chromogenic kinetic enzyme inhibitor assay of HGFA; format: biochemical; details: Table 4.1; chromogenic substrate Pefachrome FVIIa
T1 construct: His6 tag (N); seven amino acid spacer and seven amino acid TEV cleavage site (N); Honey Bee melittin signal peptide (N); made in house; host or cells: High 5 insect cells (baculovirus; virus raised in Sf9)
T1 sequence (Q04756 373-655): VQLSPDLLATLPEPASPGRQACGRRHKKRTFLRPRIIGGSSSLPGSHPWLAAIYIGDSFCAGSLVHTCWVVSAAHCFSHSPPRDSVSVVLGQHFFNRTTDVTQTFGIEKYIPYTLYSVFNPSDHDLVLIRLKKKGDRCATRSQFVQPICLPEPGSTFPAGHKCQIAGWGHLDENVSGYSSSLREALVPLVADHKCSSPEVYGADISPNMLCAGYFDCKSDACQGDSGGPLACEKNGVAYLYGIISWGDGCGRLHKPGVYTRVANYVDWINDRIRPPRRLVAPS
Excerpt: This PCR product was cloned into the SfoI-HindIII sites of a modified pFastBac HT baculovirus expression vector (Addgene, Cambridge, Mass.). This vector contains a six amino His tag followed by a seven amino spacer and a seven amino acid TEV cleavage site placed immediately downstream of the Honey Bee melittin signal peptide. Using a modified Bac to Bac Expression System (Life Technologies, Carlsbad, Calif.), recombinant HGFA bacmids were obtained by transforming DH10Bac Escherichia coli cells. To obtain HGFA containing baculovirus, purified bacmids were transfected into Sf9 insect cells. After 5 days in culture at 27° C., media was harvested from transfected Sf9 cells. This media was used to prepare baculovirus infected insect cells (BIICs). These BIIICs were used to infect High 5 insect cells. Four days post infection, media was harvested and recombinant protein prepared as follows. Media was chilled to 4° C. and spun at 4000×g for 20 minutes (all subsequent steps were performed at 4° C. unless noted). […] Concentrated media was then buffer exchanged in two steps, five volumes of 50 mM Na-phosphate, 500 mM NaCl, pH 6.2, followed by five volumes of 50 mM Na-phosphate, 500 mM NaCl, pH 7.5. […] After mixing this slurry for 12 hours, nickel agarose beads were allowed to settle by gravity and then loaded into a column. Beads were washed with buffer (25 mM Na-phosphate, 500 mM NaCl, 25 mM imidazole, pH 8) and the bound protein eluted using (25 mM Na-phosphate, 500 mM NaCl, 250 mM imidazole, pH 8). Using a Amicon Ultra-4 Centrifugal filters (#UFC801008, Merck Millipore, Ltd., Tullagreen, Ireland), peak protein fractions were concentrated and run over a Superdex-200 10/300 GL column (GE Healthcare Life Sciences, Piscataway, N.J.) in 10 mM Tris, 200 mM NaCl, 0.2 mM EDTA, pH 8. HGFA containing fractions were pooled, concentrated, made 50% glycerol, and stored at minus 20° C. Protein was quantitated using a modified Lowry protein assay (#500-0006, Bio-Rad Laboratories, Hercules, Calif.).
Using Gen 5 2.00 software program (Biotek, Winnoski, Vt.), a four parameter curve fit was used to determine the inhibitor IC50s from a plot of the mean reaction velocity versus the inhibitor concentration. The IC50 values represent the average of three separate experimental determinations.

thrombin = thrombin (Homo sapiens, UniProt P00734); experiment: Chromogenic kinetic enzyme assay of thrombin; format: biochemical; details: Table 4.1; read-out: Thrombin Ki
Method in brief: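 Recombinant human thrombin (0.15 nM) or Factor Xa (0.35 nM) was mixed with 11-point inhibitor dilutions (0–20 μM, 2% DMSO) in TNC buffer, pH 8. Kinetic absorbance at 405 nm gave velocities. IC50 came from a four-parameter fit and Ki from Cheng–Prusoff.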

HGFA [2] = target: T1, HGFA; experiment: Biochemical assay for proteolysis of pro-HGF by HGFA; details: immunoblot; inhibitors 0-12.5 μM; 1 nM HGFA
Description: (§1) In order to determine efficiency of our recombinant HGFA we performed a concentration response of HGFA using a fixed concentration of pro-HGF and pro-MSP.
(§2) After 30 minutes incubation at room temperature (25° C.), 25 ng of pro-HGF (R&D Systems, NKG011306A) was added. […] Proteins were transferred to Millipore Immobilon-P membranes (Billerica, Mass.) and then immunoblotted at 4° C. with anti-HGF antibody (R&D Systems, AF-294-NA) and HRP conjugated donkey anti-goat IgG (Santa Cruz, SC-2020) diluted 1:500 and 1:5000 in 5% milk/TBST (5% Carnation nonfat dried milk/10 mM Tris, 150 mM NaCl, 0.05% TWEEN 20, pH 8.0), respectively. Membranes were washed in TBST, immersed in Millipore Luminata Crescendo Westem-HRP Substrate for 5 minutes, and then exposures made on a BioRad ChemiDoc MP Imaging System (Hercules, Calif.). For pro-MSP proteolysis assays, the procedures were similar, except that the HGFA concentration was 75 nM, pro-MSP (R&D Systems ZN081306A) concentration was 50 ng per reaction, and 1:500 dilution of anti-MSP antibody (R&D Systems, AF352) was used for MSP detection during immunoblotting.

[3] = test system: RON phosphorylation in T47D cells; experiment: RON phosphorylation sandwich ELISA in T47D cells; format: cell-based; details: HGFA-mediated pro-MSP stimulation
Description: Detection and quantification of pRON in T47D cells was performed using a sandwich ELISA assay. RON capture antibody (R&D Systems, AF691) was immobilized on high protein binding 96-well plates. Next, cell lysates are added to wells, followed by incubation with an anti-phosphotyrosine-HRP antibody and then addition of a TMB substrate. Optical density of wells was determined by reading plates at 450 nm in a plate reader.

HGFA [4] = target: T1, HGFA; experiment: Biochemical assay for proteolysis of pro-MSP by HGFA; details: immunoblot; inhibitors 0-12.5 μM
Description: as §1, §2

HGFA [5] = target: T1, HGFA; experiment: Dilution recovery experiments with HGFA; format: biochemical; details: rapid 1:350 dilution; Boc-QLR-AMC 250 μM
Description: After incubating for 20 minutes at room temperature, these reactions were diluted rapidly (1:350) in TNC buffer containing 250 μM Boc-QLR-AMC substrate (˜7 times Kin). Activity was monitored by recording the change in fluorescence (excitation at 380 nm and emission at 460 nn) over time in a Biotek Synergy 2 plate reader. GraphPad Prism was used to plot the change in fluorescence over time.

SMILES	pIC50 (HGFA [1])	pKi (thrombin)	inhibition of pro-HGF activation by HGFA (HGFA [2])	inhibition of pro-MSP proteolysis by HGFA (HGFA [4])	reversibility of HGFA inhibition (HGFA [5])	RON phosphorylation (pRON) [3]
CC(=O)N[C@@H](CO)C(=O)N[C@@H](CCCCN)C(=O)N[C@@H](CC(C)C)C(=O)N[C@@H](CCCNC(=N)N)C(=O)c1nccs1 [Compound 6, Ac-SKLR(SEQ ID NO: 10)-kt]	6.25	< 4.70				
N=C(N)c1ccc2cc(OC(=O)c3ccc(N=C(N)N)cc3)ccc2c1 [Nafamostat, reference compound]	6.10		dose-dependent inhibition	dose-dependent inhibition		reduces pRON to background levels
CC(=O)N[C@@H](CCCCN)C(=O)N[C@@H](CCC(N)=O)C(=O)N[C@@H](CC(C)C)C(=O)N[C@@H](CCCNC(=N)N)C(=O)c1nccs1 [Compound 5, Ac-KQLR(SEQ ID NO: 1)-kt]	6.35	< 4.70	dose-dependent inhibition	dose-dependent inhibition	reversible inhibitor	

Continued, in another order:

pIC50 (HGFA [1])	pKi (thrombin)	inhibition of pro-HGF activation by HGFA (HGFA [2])	inhibition of pro-MSP proteolysis by HGFA (HGFA [4])	reversibility of HGFA inhibition (HGFA [5])	SMILES	RON phosphorylation (pRON) [3]
6.57	< 4.70				CC(=O)N[C@@H](CCCNC(=N)N)C(=O)N[C@@H](CCC(N)=O)C(=O)N[C@@H](CC(C)C)C(=O)N[C@@H](CCCNC(=N)N)C(=O)c1nccs1 [Compound 5e, Ac-RQLR(SEQ ID NO: 6)-kt]	
6.36	5.43				CC(=O)N[C@@H](CO)C(=O)N[C@@H](Cc1c[nH]c2ccccc12)C(=O)N[C@@H](CC(C)C)C(=O)N[C@@H](CCCNC(=N)N)C(=O)c1nccs1 [Compound 6g, Ac-SWLR(SEQ ID NO: 17)-kt]	
6.65		dose-dependent inhibition	dose-dependent inhibition		CC(=O)N[C@@H](CCCCN)C(=O)N[C@@H](CCCNC(=N)N)C(=O)N[C@@H](CC(C)C)C(=O)N[C@@H](CCCNC(=N)N)C(=O)c1nccs1 [Compound 5g, Ac-KRLR(SEQ ID NO: 8)-kt]	
6.52			dose-dependent inhibition		CC(=O)N[C@@H](CO)C(=O)N[C@@H](CCCNC(=N)N)C(=O)N[C@@H](CC(C)C)C(=O)N[C@@H](CCCNC(=N)N)C(=O)c1nccs1 [Compound 6e, Ac-SRLR(SEQ ID NO: 15)-kt]	
6.28	< 5.70				CC(=O)N[C@@H](CO)C(=O)N[C@@H](CCCCN)C(=O)N[C@@H](Cc1ccccc1)C(=O)N[C@@H](CCCNC(=N)N)C(=O)c1nccs1 [Compound 6c, Ac-SKFR(SEQ ID NO: 13)-kt]	
6.56		dose-dependent inhibition	dose-dependent inhibition		CC(=O)N[C@@H](Cc1c[nH]c2ccccc12)C(=O)N[C@@H](CCCNC(=N)N)C(=O)N[C@@H](CC(C)C)C(=O)N[C@@H](CCCNC(=N)N)C(=O)c1nccs1 [Compound 5h, Ac-WRLR(SEQ ID NO: 9)-kt]	
6.33	< 4.70				CC(=O)N[C@@H](CCCCN)C(=O)N[C@@H](CCC(N)=O)C(=O)N[C@@H](Cc1ccccc1)C(=O)N[C@@H](CCCNC(=N)N)C(=O)c1nccs1 [Compound 5c, Ac-KQFR(SEQ ID NO: 4)-kt]	
